Laboratory results from US20260201008A1, “SECRETIN-DERIVED GLP1R SELECTIVE AGONISTS” (GUBRA A/S, priority 2023, published 2026).
Read-outs that look alike come from different tables or passages of the source. Numbered stars: 1 amine (or outer) side, 2 acyl side, 3 side chain; on linkers, the order of the positions; unused ones are H or OH. Square brackets hold non-standard residues; d marks the D form. Side chains are listed from the residue outwards. Peptide text beside a SMILES is read from it. * marks the point of attachment. C20 diacid = O=C(O)CCCCCCCCCCCCCCCCCCC(=O)*; γGlu = O=C(O)[C@H](CCC(=O)[*:2])N[*:1]; AEEA = NCCOCCOCC(=O)O; Aib = CC(C)(N)C(=O)O

How the values were obtained:
[1] = Turbidity of crude library peptides (absorbance at 600 nm); type: physicochemical; conditions: Physical stability of peptides
Method in brief: (§1)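 Crude peptides at 267 μM in 50 mM sodium acetate pH 4.0 or 50 mM sodium phosphate pH 7.0, pre-incubated 1-2 h at room temperature, then 4 μM final ThT added. Turbidity read first as A600. ThT fluorescence (ex 450/em 480 nm) read every 10 min for 72 h at 40° C, with 5 min shaking before each read; fibril formation = average emission.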

[2] = Fibril formation of crude library peptides (Thioflavin T); type: physicochemical; design: key: average ThT fluorescence emission at 480 nm (ex 450 nm), raw units; conditions: Physical stability of peptides
Method in brief: as §1

SCTR = SCTR (Homo sapiens, UniProt P47872); experiment: hSCTR potency, cAMP accumulation in CHO-K1 cells stably overexpressing hSCTR; type: cell-based; design: alternatively Euroscreen ES-712-AF; FAST-0161L; host or cells: CHO-K1
Method in brief: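 Read-out is TR-FRET cAMP detection, recorded one hour after reagent addition, in CHO-K1 cells stably overexpressing hSCTR. Cells in DPBS containing 0.05% casein and 0.5 mM IBMX are exposed to graded peptide doses for 30 min at room temperature, with human secretin as reference agonist.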

GLP1R = GLP1R (Homo sapiens, UniProt P43220); experiment: hGLP1R potency, cAMP accumulation in CHO-K1 cells stably overexpressing hGLP1R; type: cell-based; design: host or cells: CHO-K1; conditions: for Selectivity: SCTR EC50/GLP1R EC50 ratio; for SCTR EC50/GLP1R EC50 ratio: cAMP accumulation in CHO-K1 cells
Method in brief: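 Thawed cells go straight into buffer containing 0.5 mM IBMX and 0.05% casein, get graded compound doses for 30 min at room temperature, and are then assayed for accumulated cAMP by time-resolved FRET. Human GLP-1(7-36) serves as positive control; EC50 is derived by nonlinear regression.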

[3] = cAMP accumulation, CHO-K1 cells overexpressing hSCTR, read-out: hSCTR pEC50 (converted)
[4] = cAMP accumulation, CHO-K1 cells overexpressing hGLP1R, read-out: hGLP1R pEC50 (converted)
[5] = selectivity for hGLP1R over hSCTR
[6] = cAMP accumulation, CHO-K1 cells stably overexpressing hSCTR, read-out: hSCTR potency (pEC50) (converted)
[7] = cAMP accumulation, CHO-K1 cells stably overexpressing hGLP1R, read-out: hGLP1R potency (pEC50) (converted)
[8] = selectivity ratio, hSCTR vs hGLP1R

GLP1R, sequence (P43220 24-463): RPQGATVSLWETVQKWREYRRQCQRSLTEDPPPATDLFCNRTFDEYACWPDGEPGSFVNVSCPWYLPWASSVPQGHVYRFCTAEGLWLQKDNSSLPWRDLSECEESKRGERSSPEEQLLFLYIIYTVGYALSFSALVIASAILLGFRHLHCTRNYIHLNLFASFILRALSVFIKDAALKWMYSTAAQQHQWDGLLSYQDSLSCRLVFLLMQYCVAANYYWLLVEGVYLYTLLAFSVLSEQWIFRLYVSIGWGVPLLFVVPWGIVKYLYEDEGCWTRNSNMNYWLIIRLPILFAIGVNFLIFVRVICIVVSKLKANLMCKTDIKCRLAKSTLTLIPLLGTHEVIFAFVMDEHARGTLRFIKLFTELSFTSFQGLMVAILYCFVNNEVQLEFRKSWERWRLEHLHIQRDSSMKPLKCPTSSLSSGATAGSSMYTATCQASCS
SCTR, sequence (P47872 23-440): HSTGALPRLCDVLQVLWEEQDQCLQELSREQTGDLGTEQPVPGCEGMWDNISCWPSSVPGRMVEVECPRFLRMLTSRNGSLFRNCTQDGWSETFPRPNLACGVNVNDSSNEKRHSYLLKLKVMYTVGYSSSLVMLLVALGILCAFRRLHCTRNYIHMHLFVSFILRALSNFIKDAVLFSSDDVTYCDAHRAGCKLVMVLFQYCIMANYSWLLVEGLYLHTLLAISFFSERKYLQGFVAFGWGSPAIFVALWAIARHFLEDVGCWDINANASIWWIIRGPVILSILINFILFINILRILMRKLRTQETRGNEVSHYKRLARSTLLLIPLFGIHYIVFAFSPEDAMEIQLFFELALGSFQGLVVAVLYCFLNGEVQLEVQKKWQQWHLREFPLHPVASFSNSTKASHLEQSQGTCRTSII

Row | Compound | Turbidity (pH 7) [1] | Fibril formation [2] | EC50 (SCTR; cAMP accumulation, CHO-K1 cells overexpressing hSCTR, read-out: pEC50 hSCTR (converted)) | Selectivity (GLP1R) | EC50 (GLP1R; cAMP accumulation, CHO-K1 cells overexpressing hGLP1R, read-out: pEC50 hGLPR1 (converted)) | EC50 (SCTR; [3]) | EC50 (GLP1R; [4]) | SCTR EC50/GLP1R EC50 ratio (GLP1R; [5]) | EC50 (SCTR; [6]) | EC50 (GLP1R; [7]) | SCTR EC50/GLP1R EC50 ratio (GLP1R; [8]) | EC50 (SCTR) | EC50 (GLP1R)
1 | CC(C)C[C@H](NC(=O)[C@H](Cc1ccccc1)NC(=O)[C@H](CCCNC(=N)N)NC(=O)[C@H](CCC(N)=O)NC(=O)[C@H](CCC(=O)O)NC(=O)[C@H](C)NC(=O)[C@H](C)NC(=O)C(C)(C)NC(=O)[C@H](CCC(=O)O)NC(=O)[C@H](CCCCNC(=O)COCCOCCNC(=O)COCCOCCNC(=O)CC[C@H](NC(=O)CCCCCCCCCCCCCCCCCCC(=O)O)C(=O)O)NC(=O)[C@H](CC(C)C)NC(=O)[C@H](CCC(=O)O)NC(=O)[C@H](CO)NC(=O)[C@@H](NC(=O)[C@H](CC(=O)O)NC(=O)[C@H](CO)NC(=O)[C@@H](NC(=O)[C@H](Cc1ccccc1)NC(=O)[C@@H](NC(=O)CNC(=O)[C@H](CCC(=O)O)NC(=O)C(C)(C)NC(=O)[C@@H](N)Cc1c[nH]cn1)[C@@H](C)O)[C@@H](C)O)C(C)C)C(=O)N[C@@H](CCC(=O)O)C(=O)N[C@@H](Cc1c[nH]cn1)C(=O)N[C@@H](CC(C)C)C(=O)N[C@H](C(N)=O)C(C)C [compound 18] (H-H[Aib]EGTFTSDVSELK([AEEA-AEEA-γGlu-C20 diacid])E[Aib]AAEQRFLEHLV-NH2) | 0.09 | 12140 | 501 nM | 16263 | 0.0316 nM |  |  |  |  |  |  |  | 
2 | CC(C)C[C@H](NC(=O)[C@H](Cc1ccccc1)NC(=O)[C@H](CCCNC(=N)N)NC(=O)[C@H](CCC(N)=O)NC(=O)[C@H](CC(C)C)NC(=O)C(C)(C)NC(=O)[C@H](C)NC(=O)[C@H](CCC(=O)O)NC(=O)[C@H](CCC(=O)O)NC(=O)[C@H](CCCCNC(=O)COCCOCCNC(=O)COCCOCCNC(=O)CC[C@H](NC(=O)CCCCCCCCCCCCCCCCCCC(=O)O)C(=O)O)NC(=O)[C@H](CC(C)C)NC(=O)C(C)(C)NC(=O)[C@H](CO)NC(=O)[C@@H](NC(=O)[C@H](CC(=O)O)NC(=O)[C@H](CO)NC(=O)[C@@H](NC(=O)[C@H](Cc1ccccc1)NC(=O)[C@@H](NC(=O)CNC(=O)[C@H](CCC(=O)O)NC(=O)C(C)(C)NC(=O)[C@@H](N)Cc1c[nH]cn1)[C@@H](C)O)[C@@H](C)O)C(C)C)C(=O)N[C@@H](CCC(=O)O)C(=O)N[C@@H](Cc1c[nH]cn1)C(=O)N[C@@H](CC(C)C)C(=O)N[C@H](C(N)=O)C(C)C [compound 163] (H-H[Aib]EGTFTSDVS[Aib]LK([AEEA-AEEA-γGlu-C20 diacid])EEA[Aib]LQRFLEHLV-NH2) | 0.08 | 3983 |  |  |  | 39.8 nM | 0.0126 nM | 3669 |  |  |  |  | 
3 | CC[C@H](C)[C@H](NC(=O)[C@H](Cc1ccccc1)NC(=O)[C@H](CCCNC(=N)N)NC(=O)[C@H](CCC(N)=O)NC(=O)[C@H](CC(C)C)NC(=O)[C@H](C)NC(=O)[C@H](C)NC(=O)CNC(=O)[C@H](CCC(=O)O)NC(=O)[C@H](CC(C)C)NC(=O)[C@H](CC(C)C)NC(=O)C(C)(C)NC(=O)[C@H](CO)NC(=O)[C@H](Cc1c[nH]c2ccccc12)NC(=O)[C@H](CC(=O)O)NC(=O)[C@H](CO)NC(=O)[C@@H](NC(=O)[C@H](Cc1ccccc1)NC(=O)[C@@H](NC(=O)CNC(=O)[C@H](CCC(=O)O)NC(=O)C(C)(C)NC(=O)[C@@H](N)Cc1c[nH]cn1)[C@@H](C)O)[C@@H](C)O)C(=O)N[C@@H](CCC(N)=O)C(=O)N[C@@H](Cc1c[nH]c2ccccc12)C(=O)N[C@@H](CC(C)C)C(=O)N[C@H](C(N)=O)C(C)C [compound 192] (H-H[Aib]EGTFTSDWS[Aib]LLEGAALQRFIQWLV-NH2) | 0.54 | 29535 |  |  |  |  |  |  | 50.1 nM | 0.126 nM | 383 |  | 
4 | CC(C)C[C@H](NC(=O)[C@H](Cc1ccccc1)NC(=O)[C@H](CCCNC(=N)N)NC(=O)[C@H](CCC(N)=O)NC(=O)[C@H](C)NC(=O)[C@H](C)NC(=O)[C@H](C)NC(=O)C(C)(C)NC(=O)[C@H](CCC(=O)O)NC(=O)[C@H](CCCCNC(=O)COCCOCCNC(=O)COCCOCCNC(=O)CC[C@H](NC(=O)CCCCCCCCCCCCCCCCCCC(=O)O)C(=O)O)NC(=O)[C@H](CC(C)C)NC(=O)[C@@H](NC(=O)[C@H](CO)NC(=O)[C@@H](NC(=O)[C@H](CC(=O)O)NC(=O)[C@H](CO)NC(=O)[C@@H](NC(=O)[C@H](Cc1ccccc1)NC(=O)[C@@H](NC(=O)CNC(=O)[C@H](CCC(=O)O)NC(=O)C(C)(C)NC(=O)[C@@H](N)Cc1c[nH]cn1)[C@@H](C)O)[C@@H](C)O)C(C)C)[C@@H](C)O)C(=O)N[C@@H](CCC(=O)O)C(=O)N[C@@H](Cc1c[nH]cn1)C(=O)N[C@@H](CC(C)C)C(=O)N[C@H](C(N)=O)C(C)C [compound 43] (H-H[Aib]EGTFTSDVSTLK([AEEA-AEEA-γGlu-C20 diacid])E[Aib]AAAQRFLEHLV-NH2) | 0.09 | 18355 |  | 36686 |  |  |  |  |  |  |  | 316 nM | 0.01 nM
5 | CC[C@H](C)[C@H](NC(=O)[C@H](Cc1ccccc1)NC(=O)[C@H](CCCNC(=N)N)NC(=O)[C@H](CCC(N)=O)NC(=O)[C@H](CC(C)C)NC(=O)[C@H](C)NC(=O)[C@H](C)NC(=O)CNC(=O)[C@H](CCC(=O)O)NC(=O)[C@H](CC(C)C)NC(=O)[C@H](CC(C)C)NC(=O)[C@H](CCCNC(=N)N)NC(=O)[C@H](CO)NC(=O)[C@H](Cc1c[nH]c2ccccc12)NC(=O)[C@H](CC(=O)O)NC(=O)[C@H](CO)NC(=O)[C@@H](NC(=O)[C@H](Cc1ccccc1)NC(=O)[C@@H](NC(=O)CNC(=O)[C@H](CCC(=O)O)NC(=O)C(C)(C)NC(=O)[C@@H](N)Cc1c[nH]cn1)[C@@H](C)O)[C@@H](C)O)C(=O)N[C@@H](CCC(N)=O)C(=O)N[C@@H](Cc1c[nH]c2ccccc12)C(=O)N[C@@H](CC(C)C)C(=O)N[C@H](C(N)=O)C(C)C [compound 186] (H-H[Aib]EGTFTSDWSRLLEGAALQRFIQWLV-NH2) | 1.04 | 48618 |  |  |  |  |  |  | 6.31 nM | 0.0126 nM | 478 |  | 
6 | CC[C@H](C)[C@H](NC(=O)[C@H](Cc1ccccc1)NC(=O)[C@H](CCCNC(=N)N)NC(=O)[C@H](CCC(N)=O)NC(=O)[C@H](CC(C)C)NC(=O)[C@H](C)NC(=O)[C@H](C)NC(=O)CNC(=O)[C@H](CCC(=O)O)NC(=O)[C@H](CC(C)C)NC(=O)[C@H](CC(C)C)NC(=O)[C@H](Cc1ccccc1)NC(=O)[C@H](CO)NC(=O)[C@H](Cc1c[nH]c2ccccc12)NC(=O)[C@H](CC(=O)O)NC(=O)[C@H](CO)NC(=O)[C@@H](NC(=O)[C@H](Cc1ccccc1)NC(=O)[C@@H](NC(=O)CNC(=O)[C@H](CCC(=O)O)NC(=O)C(C)(C)NC(=O)[C@@H](N)Cc1c[nH]cn1)[C@@H](C)O)[C@@H](C)O)C(=O)N[C@@H](CCC(N)=O)C(=O)N[C@@H](Cc1c[nH]c2ccccc12)C(=O)N[C@@H](CC(C)C)C(=O)N[C@H](C(N)=O)C(C)C [compound 190] (H-H[Aib]EGTFTSDWSFLLEGAALQRFIQWLV-NH2) | 0.61 | 260000 |  |  |  |  |  |  | 100 nM | 0.0631 nM | 1844 |  | 
7 | CC[C@H](C)[C@H](NC(=O)[C@H](CC(=O)O)NC(=O)[C@H](CO)NC(=O)[C@@H](NC(=O)[C@H](Cc1ccccc1)NC(=O)[C@@H](NC(=O)CNC(=O)[C@H](CCC(=O)O)NC(=O)C(C)(C)NC(=O)[C@@H](N)Cc1c[nH]cn1)[C@@H](C)O)[C@@H](C)O)C(=O)N[C@@H](CO)C(=O)NCC(=O)N[C@@H](CC(C)C)C(=O)N[C@@H](CC(C)C)C(=O)N[C@@H](CCC(=O)O)C(=O)NCC(=O)N[C@@H](C)C(=O)N[C@@H](C)C(=O)N[C@@H](CC(C)C)C(=O)N[C@@H](CCC(N)=O)C(=O)N[C@@H](CCCNC(=N)N)C(=O)N[C@@H](Cc1ccccc1)C(=O)N[C@H](C(=O)N[C@@H](CCC(N)=O)C(=O)N[C@@H](Cc1c[nH]c2ccccc12)C(=O)N[C@@H](CC(C)C)C(=O)N[C@H](C(N)=O)C(C)C)[C@@H](C)CC [compound 120] (H-H[Aib]EGTFTSDISGLLEGAALQRFIQWLV-NH2) | 0.23 | 4449 |  |  |  | 200 nM | 0.0501 nM | 3717 |  |  |  |  | 
